The source of these data is patent publication US20040235666A1, “Substituted imidates as pesticidal agents” (priority 2001, published 2004).

System in one series: not listed separately
As to the kind of experiment: log P determination by HPLC (EEC Directive 79/831 Annex V.A8, reversed-phase C18). Format: physicochemical. The following applies: reversed-phase C18 HPLC column, C18, 43° C., 0.1% aqueous phosphoric acid/acetonitrile gradient. The procedure:
The log P values given in Table 1 were determined in accordance with EEC Directive 79/831 Annex V.A8 by HPLC (High Performance Liquid Chromatography) using a reversed-phase column (C18). Temperature: 43° C. Mobile phase: 0.1% aqueous phosphoric acid, acetonitrile; linear gradient from 10% acetonitrile to 90% acetonitrile Calibration was carried out using unbranched alkan-2-ones (having 3 to 16 C atoms) with known log P values. (Determination of the log P values by the retention times using linear interpolation between two successive alkanones).
The compound `CC(c1ccc(Cl)c(Cl)c1)N1CCSC1=NC#N` (stereo not drawn) [Example 13] gave a chromatographic logP of 2.84.

The compound `CC(c1ccc(Cl)cc1)N1OCCN(C)/C1=N\C#N` (stereo not drawn) [Example 42] showed a chromatographic logP of 2.21. As to `CC(c1ccc(Cl)cc1)N1CCCN(C)/C1=N\C(N)=S` (stereo not drawn) [Example 43], the chromatographic logP was 1.48. Compound `CC(=O)Oc1ccc(CCN2CCS/C2=N\C#N)cc1` [Example 46] displayed a chromatographic logP of 1.89. As for `CC(c1ccc(Cl)cc1)N1CC[S+]([O-])/C1=N\C#N` (stereo not drawn) [Example 40], the chromatographic logP is 1.86. Same read-out and setting: for `CC(c1ccc(Cl)cc1)N1CCCN(C)C1=NC#N` (stereo not drawn) [Example 28] the value was 2.23; for `CC(c1ccc(Cl)cc1Cl)N1CCCO/C1=N\C#N` (stereo not drawn) [Example 47], 2.43. Take `N#CN=C1SCCN1C1Cc2ccc(Cl)cc2C1` (stereo not drawn) [Example 33]: the chromatographic logP stood at 2.68. Compound `CC(c1ccc(Cl)c(Cl)c1)N1CCCO/C1=N\C#N` (stereo not drawn) [Example 48] came in with a chromatographic logP of 2.59.

Take `CC(c1ccc(Cl)cc1)N1CSCC/C1=N\C#N` (stereo not drawn) [Example 51]: the chromatographic logP was 2.63. In turn, `CC1CN(C)/C(=N\C#N)N(C(C)c2ccc(Cl)cc2)C1` (stereo not drawn) [Example 50] yielded a chromatographic logP of 2.52. The compound `CC1CN/C(=N\C#N)N(C(C)c2ccc(Cl)cc2)C1` (stereo not drawn) [Example 49] came in with a chromatographic logP of 2.65. Same read-out and setting: for `CC(c1ccc(Cl)cc1)N1COCC/C1=N\C#N` (stereo not drawn) [Example 52] the value was 2.28. Same read-out and setting: then `Cc1ccc(C(C)N2CCSC2=NC#N)cc1` (stereo not drawn) [Example 12], with 3.06; and `CC(C)c1ccc(C(C)N2CCSC2=NC#N)cc1` (stereo not drawn) [Example 15], with 3.11.

The compound `CC(c1ccc(Cl)cc1)N1CCCN/C1=N\C(N)=S` (stereo not drawn) [Example 41] registered a chromatographic logP of 1.48. `CSc1ccc(Oc2cccc(CCN3CCSC3=NC#N)c2)cc1` [Example 21] displayed a chromatographic logP of 3.29. `CC(c1ccc(Cl)cc1)N1CCN(C)C1=NC#N` (stereo not drawn) [Example 23] registered a chromatographic logP of 2.29.

As for `N#CN=C1SCCN1C(CF)c1ccc(Cl)cc1` (stereo not drawn) [Example 18], the chromatographic logP worked out at 2.41. `CCc1ccc(C(C)N2CCSC2=NC#N)cc1` (stereo not drawn) [Example 7]: the chromatographic logP came to 2.09. On the same count and under the same terms, then `CCC(c1ccc(Cl)cc1)N1CCS/C1=N\C#N` (stereo not drawn) [Example 39], with 2.81; and `CSc1ccc(Oc2ccccc2CCN2CCS/C2=N\C#N)cc1` [Example 45], with 3.33.

A further series concerns Meloidogyne incognita egg/larvae. As to the kind of experiment: Meloidogyne test (sand, lettuce, gall formation). Format: in vivo. The following applies: 20 ppm; nematicidal action by gall formation on lettuce roots; 100% = no galls. The procedure:
To prepare a suitable preparation of active compound, 1 part by weight of active compound is mixed with 30 parts by weight of dimethylformamide and 1 part by weight of emulsifier (alllylaryl polyglycol ether), and the concentrate is diluted with water to the desired concentration.
Containers are filled with sand, solution of active compound, Meloidogyne incognita egg/larvae suspension and lettuce seeds. The lettuce seeds germinate and the plants develop. On the roots, galls are formed.
After the period of time indicated in the table, the nematicidal action is determined in % using gall formation as a measure. 100% means that no galls were found; 0% means that the number of galls on the treated plants corresponds to that of the untreated control.
In this test, for example, the following compounds of the Preparation Examples show good activity: […]
Turning to `CC(c1ccc(Cl)cc1)N1CCCC1=NC#N` (stereo not drawn) [Example 22], the “Effect in % after 4 days” value is 100%. `CC(c1ccc(Cl)cc1)N1CCCN(C)C1=NC#N` (stereo not drawn) [Example 28]: the “Effect in % after 4 days” value is 95%. Take `CC(c1ccc(Cl)cc1)N1CCNC1=NC#N` (stereo not drawn) [Example 1, 1-[1-(4-Chlorophenyl)ethyl]-2-imidazolidinylidenecyanamide]: the “Effect in % after 4 days” value turned out to be 98%. Regarding `CCC(c1ccccc1Cl)N1CCSC1=NC#N` (stereo not drawn) [Example 4], the “Effect in % after 4 days” value worked out at 100%. For `CC(c1ccccc1Cl)N1CCSC1=NC#N` (stereo not drawn) [Example 3], the “Effect in % after 4 days” value is reported as 100%. With `CC(c1ccc(Cl)cc1)N1CCN(C)C1=NC#N` (stereo not drawn) [Example 23], the “Effect in % after 4 days” value was found to be 90%. As to `CC(c1ccc(Cl)cc1)N1CCSC1=NC#N` (stereo not drawn) [Example 14], the “Effect in % after 4 days” value was determined as 100%.

For the next series, the system named is Meloidogyne incognita larvae. As to the kind of experiment: Meloidogyne test/aqueous system. The following applies: 40 ppm; nematicidal action by activity of the larvae; 96-well plate; 100% = no activity found. Format: in vivo. The procedure:
Meloidogyne Test/Aqueous System To prepare a suitable preparation of active compound, 1 part by weight of active compound is mixed with 1 000 parts by weight of methanol, and per preparation to be tested, 10 μl are added to a well of a 96-well plate (from Greiner), where the solvent evaporates. In the 96-well plates, the wells containing the active compound are filled with lecithin solution (0.01%) and Meloidogyne incognita larvae suspension. The concentration of active compound is now 40 ppm. After the time indicated in the table, the nematicidal action is determined in % by the activity of the larvae. 100% means that no activity has been found; 0% means that the activity in the treated wells corresponds to that of the untreated control.
Turning to `CC(c1ccc(Cl)cc1)N1CCSC1=NC#N` (stereo not drawn) [Example 14], the “Effect in % after 4 days” value is 100%.

For orientation: chromatographic logP means lipophilicity estimated from chromatographic retention. Read a low chromatographic logP as a more hydrophilic compound.
